# Experimental data as given in patent publication US10689377B2 (Mirati Therapeutics, Inc., priority 2017, dated 2020).
# Structures can show the parent of a compound that is named as a salt.
# Biological target: KRas G12C (Homo sapiens, UniProt P01116, G12C)
# Assay: Cellular inhibition of KRas G12C measured by Phospho-ERK in NCI-H358 cells
# Assay type: cell-based
# Conditions: pERK(Thr202/Tyr204) normalized with GAPDH, NCI-H358 cells, 3 hours; read-out: IC50
# In short: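 Readout is pERK(Thr202/Tyr204) immunofluorescence normalized to GAPDH, expressed as percent of DMSO control and fitted with a 4-parameter curve for IC50. Attached NCI-H358 cells received compound for 3 hours in 0.5% DMSO, followed by fixation and methanol permeabilization.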
# KRas G12C, sequence (P01116 1-188 isoform P01116-2 G12C): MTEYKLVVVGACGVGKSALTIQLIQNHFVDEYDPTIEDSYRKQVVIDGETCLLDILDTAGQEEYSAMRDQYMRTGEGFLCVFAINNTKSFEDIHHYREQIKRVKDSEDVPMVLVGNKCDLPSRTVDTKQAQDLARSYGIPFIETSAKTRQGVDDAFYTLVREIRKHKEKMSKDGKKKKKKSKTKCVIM
row,Compound,IC50
1,"C=CC(=O)N1CCN(c2nc(OCCN3CCOCC3)nc3c2CCN(c2cc(O)cc4ccccc24)C3)CC1 [Example 117, 1-(4-(7-(3-hydroxynaphthalen-1-yl)-2-(2-morpholinoethoxy)-5,6,7,8-tetrahydropyrido[3,4-d]pyrimidin-4-yl)piperazin-1-yl)prop-2-en-1-one]",> 1000 nM
2,"C=CC(=O)N1CCN(c2nc(N3CCOCC3)nc3c2CCN(c2cc(O)cc4ccccc24)C3)CC1 [Example 118, 1-(4-(7-(3-hydroxynaphthalen-1-yl)-2-morpholino-5,6,7,8-tetrahydropyrido[3,4-d]pyrimidin-4-yl)piperazin-1-yl)prop-2-en-1-one]",> 1000 nM
3,"C=CC(=O)N1CCN(c2nc(N3CCCC3)nc3c2CCN(c2cc(O)cc4ccccc24)C3)CC1 [Example 119, 1-(4-(7-(3-hydroxynaphthalen-1-yl)-2-(pyrrolidin-1-yl)-5,6,7,8-tetrahydropyrido[3,4-d]pyrimidin-4-yl)piperazin-1-yl)prop-2-en-1-one]",> 1000 nM
4,"C=CC(=O)N1CCN(c2nc(O[C@H](C)CN3CCCC3)nc3c2CCN(c2cc(O)cc4ccccc24)C3)CC1 [Example 120, (R)-1-(4-(7-(3-hydroxynaphthalen-1-yl)-2-((1-(pyrrolidin-1-yl)propan-2-yl)oxy)-5,6,7,8-tetrahydropyrido[3,4-d]pyrimidin-4-yl)piperazin-1-yl)prop-2-en-1-one]",0.1 to 1000 nM
5,"C=CC(=O)N1CCN(c2nc(OCCCN3CCOCC3)nc3c2CCN(c2cc(O)cc4ccccc24)C3=O)CC1 [Example 121, 4-(4-acryloylpiperazin-1-yl)-7-(3-hydroxynaphthalen-1-yl)-2-(3-morpholinopropoxy)-6,7-dihydropyrido[3,4-d]pyrimidin-8(5H)-one]",> 1000 nM
6,"C[C@H](CN(C)C)Oc1nc2c(c(N3CCN(C(=O)/C=C/CN(C)C)CC3)n1)CCN(c1cc(O)cc3ccccc13)C2 [Example 122, (R,E)-4-(dimethylamino)-1-(4-(2-((1-(dimethylamino)propan-2-yl)oxy)-7-(3-hydroxynaphthalen-1-yl)-5,6,7,8-tetrahydropyrido[3,4-d]pyrimidin-4-yl)piperazin-1-yl)but-2-en-1-one bis-trifluoroacetate]",> 1000 nM
7,"C=CC(=O)N1CCN(c2nc(OCC(O)CN3CCOCC3)nc3c2CCN(c2cc(O)cc4ccccc24)C3)CC1 (stereo not drawn) [Example 123, 1-(4-(2-(2-hydroxy-3-morpholinopropoxy)-7-(3-hydroxynaphthalen-1-yl)-5,6,7,8-tetrahydropyrido[3,4-d]pyrimidin-4-yl)piperazin-1-yl)prop-2-en-1-one]",> 1000 nM
8,"C=CC(=O)N1CCN(c2nc(O[C@H](C)CN(C)C)nc3c2CCN(c2cc(O)c(F)c4ccccc24)C3)CC1 [Example 124, (R)-1-(4-(2-((1-(dimethylamino)propan-2-yl)oxy)-7-(4-fluoro-3-hydroxynaphthalen-1-yl)-5,6,7,8-tetrahydropyrido[3,4-d]pyrimidin-4-yl)piperazin-1-yl)prop-2-en-1-one]",> 1000 nM
9,"C=CC(=O)N1CCN(c2nc(O[C@H](C)CN(C)C)nc3c2CCN(c2cc(O)c(Cl)c4ccccc24)C3)CC1 [Example 125, (R)-1-(4-(7-(4-chloro-3-hydroxynaphthalen-1-yl)-2-((1-(dimethylamino)propan-2-yl)oxy)-5,6,7,8-tetrahydropyrido[3,4-d]pyrimidin-4-yl)piperazin-1-yl)prop-2-en-1-one]",> 1000 nM
10,"C=CC(=O)N1CCN(c2nc(OCCc3ccccn3)nc3c2CCN(c2cc(O)cc4ccccc24)C3)CC1 [Example 126, 1-(4-(7-(3-hydroxynaphthalen-1-yl)-2-(2-(pyridin-2-yl)ethoxy)-5,6,7,8-tetrahydropyrido[3,4-d]pyrimidin-4-yl)piperazin-1-yl)prop-2-en-1-one trifluoroacetate]",> 1000 nM
11,"C=CC(=O)N1CCN(c2nc(N3CC(N(C)C)C3)nc3c2CCN(c2cc(O)cc4ccccc24)C3)CC1 [Example 128, 1-(4-(2-(3-(dimethylamino)azetidin-1-yl)-7-(3-hydroxynaphthalen-1-yl)-5,6,7,8-tetrahydropyrido[3,4-d]pyrimidin-4-yl)piperazin-1-yl)prop-2-en-1-one]",> 1000 nM
12,"C=CC(=O)N1CCN(c2nc(O[C@H](C)[C@H]3CCCN3C)nc3c2CCN(c2cc(O)cc4ccccc24)C3)CC1 [Example 129, 1-[4-[7-(3-hydroxy-1-naphthyl)-2-[(1R)-1-[(2R)-1-methylpyrrolidin-2-yl]ethoxy]-6,8-dihydro-5H-pyrido[3,4-d]pyrimidin-4-yl]piperazin-1-yl]prop-2-en-1-one]",0.1 to 1000 nM
13,"C=CC(=O)N1CCN(c2nc(O[C@@H](C)[C@@H]3CCCN3C)nc3c2CCN(c2cc(O)cc4ccccc24)C3)CC1 [Example 130, 1-(4-(7-(3-hydroxynaphthalen-1-yl)-2-((S)-1-((S)-1-methylpyrrolidin-2-yl)ethoxy)-5,6,7,8-tetrahydropyrido[3,4-d]pyrimidin-4-yl)piperazin-1-yl)prop-2-en-1-one]",0.1 to 1000 nM
14,"C=CC(=O)N1CCN(c2nc(OCC3CCN(C4CCCCC4)C3)nc3c2CCN(c2cc(O)cc4ccccc24)C3)CC1 (stereo not drawn) [Example 132, 1-[4-[2-[(1-cyclohexylpyrrolidin-3-yl)methoxy]-7-(3-hydroxy-1-naphthyl)-6,8-dihydro-5H-pyrido[3,4-d]pyrimidin-4-yl]piperazin-1-yl]prop-2-en-1-one]",0.1 to 1000 nM
15,"C=CC(=O)N1CCN(c2nc(NCCCN3CCOCC3)nc3c2CCN(c2cc(O)cc4ccccc24)C3)CC1 [Example 133, 1-[4-[7-(3-hydroxy-1-naphthyl)-2-(3-morpholinopropylamino)-6,8-dihydro-5H-pyrido[3,4-d]pyrimidin-4-yl]piperazin-1-yl]prop-2-en-1-one]",> 1000 nM
16,"C=CC(=O)N1CCN(c2nc(OCCCN3CCN(C(C)=O)CC3)nc3c2CCN(c2cc(O)cc4ccccc24)C3)CC1 [Example 135, 1-[4-[2-[3-(4-acetylpiperazin-1-yl)propoxy]-7-(3-hydroxy-1-naphthyl)-6,8-dihydro-5H-pyrido[3,4-d]pyrimidin-4-yl]piperazin-1-yl]prop-2-en-1-one]",0.1 to 1000 nM
17,"C=CC(=O)N1CCN(c2nc(OCCN3CCC(OC)C3)nc3c2CCN(c2cc(O)cc4ccccc24)C3)CC1 (stereo not drawn) [Example 136, 1-[4-[7-(3-hydroxy-1-naphthyl)-2-[2-(3-methoxypyrrolidin-1-yl)ethoxy]-6,8-dihydro-5H-pyrido[3,4-d]pyrimidin-4-yl]piperazin-1-yl]prop-2-en-1-one]",> 1000 nM
18,"C=CC(=O)N1CCN(c2nc(OCCCN3CCC(OC)C3)nc3c2CCN(c2cc(O)cc4ccccc24)C3)CC1 (stereo not drawn) [Example 137, 1-[4-[7-(3-hydroxy-1-naphthyl)-2-[3-(3-methoxypyrrolidin-1-yl)propoxy]-6,8-dihydro-5H-pyrido[3,4-d]pyrimidin-4-yl]piperazin-1-yl]prop-2-en-1-one]",> 1000 nM
19,"C=CC(=O)N1CCN(c2nc(OCCN3CC(F)(F)C3)nc3c2CCN(c2cc(O)cc4ccccc24)C3)CC1 [Example 138, 1-[4-[2-[2-(3,3-difluoroazetidin-1-yl)ethoxy]-7-(3-hydroxy-1-naphthyl)-6,8-dihydro-5H-pyrido[3,4-d]pyrimidin-4-yl]piperazin-1-yl]prop-2-en-1-one]",> 1000 nM
20,"C=CC(=O)N1CCN(c2nc(OCCN3CCC(F)(F)C3)nc3c2CCN(c2cc(O)cc4ccccc24)C3)CC1 [Example 139, 1-[4-[2-[2-(3,3-difluoropyrrolidin-1-yl)ethoxy]-7-(3-hydroxy-1-naphthyl)-6,8-dihydro-5H-pyrido[3,4-d]pyrimidin-4-yl]piperazin-1-yl]prop-2-en-1-one]",> 1000 nM
21,"C=CC(=O)N1CCN(c2nc(OCC3CCN(CC(=O)N(C)C)C3)nc3c2CCN(c2cc(O)cc4ccccc24)C3)CC1 (stereo not drawn) [Example 140, 2-[3-[[7-(3-hydroxy-1-naphthyl)-4-(4-prop-2-enoylpiperazin-1-yl)-6,8-dihydro-5H-pyrido[3,4-d]pyrimidin-2-yl]oxymethyl]pyrrolidin-1-yl]-N,N-dimethyl-acetamide]",> 1000 nM
22,"C=CC(=O)N1CCN(c2nc(OCC3CCN(CCO)C3)nc3c2CCN(c2cc(O)cc4ccccc24)C3)CC1 (stereo not drawn) [Example 141, 1-[4-[2-[[1-(2-hydroxyethyl)pyrrolidin-3-yl]methoxy]-7-(3-hydroxy-1-naphthyl)-6,8-dihydro-5H-pyrido[3,4-d]pyrimidin-4-yl]piperazin-1-yl]prop-2-en-1-one]",> 1000 nM
23,"C=CC(=O)N1CCN(c2nc(OCCO)nc3c2CCN(c2cc(O)cc4ccccc24)C3)CC1 [Example 142, 1-[4-[2-(2-hydroxyethoxy)-7-(3-hydroxy-1-naphthyl)-6,8-dihydro-5H-pyrido[3,4-d]pyrimidin-4-yl]piperazin-1-yl]prop-2-en-1-one]",> 1000 nM
24,"C=CC(=O)N1CCN(c2nc(OCC(O)CO)nc3c2CCN(c2cc(O)cc4ccccc24)C3)CC1 (stereo not drawn) [Example 143, 1-[4-[2-(2,3-dihydroxypropoxy)-7-(3-hydroxy-1-naphthyl)-6,8-dihydro-5H-pyrido[3,4-d]pyrimidin-4-yl]piperazin-1-yl]prop-2-en-1-one]",> 1000 nM
25,"C=CC(=O)N1CCN(c2nc(OC[C@@H]3CCCN3CCOC)nc3c2CCN(c2cc(O)cc4ccccc24)C3)CC1 [Example 144, (S)-1-(4-(7-(3-hydroxynaphthalen-1-yl)-2-((1-(2-methoxyethyl)pyrrolidin-2-yl)methoxy)-5,6,7,8-tetrahydropyrido[3,4-d]pyrimidin-4-yl)piperazin-1-yl)prop-2-en-1-one]",0.1 to 1000 nM
26,"C=CC(=O)N1CCN(c2nc(OC[C@@H]3CCCN3C(C)C)nc3c2CCN(c2cc(O)cc4ccccc24)C3)CC1 [Example 145, 1-[4-[7-(3-hydroxy-1-naphthyl)-2-[[(2S)-1-isopropylpyrrolidin-2-yl]methoxy]-6,8-dihydro-5H-pyrido[3,4-d]pyrimidin-4-yl]piperazin-1-yl]prop-2-en-1-one]",0.1 to 1000 nM
27,"C=CC(=O)N1CCN(c2nc(OC[C@@H]3CCNC3)nc3c2CCN(c2cc(O)cc4ccccc24)C3)CC1 [Example 146, 1-[4-[7-(3-hydroxy-1-naphthyl)-2-[[(3R)-pyrrolidin-3-yl]methoxy]-6,8-dihydro-5H-pyrido[3,4-d]pyrimidin-4-yl]piperazin-1-yl]prop-2-en-1-one]",> 1000 nM
